Measured values taken from patent US11401279B2, “Pyrido[3,2-d]pyrimidine compounds as immunomodulators” (Incyte Corporation, priority 2019, dated 2022).
Where two headings read alike, the source gives them in different places.

Key:
[1] = target: PD-1/PD-L1 (Homo sapiens (Human), UniProt Q9NZQ7); experiment: Homogeneous Time-Resolved Fluorescence (HTRF) PD-1/PD-L1 binding assay; details: recombinant human PD-1 and PD-L1
Protocol: The assays were conducted in a standard black 384-well polystyrene plate with a final volume of 20 μL. Inhibitors were first serially diluted in DMSO and then added to the plate wells before the addition of other reaction components. The final concentration of DMSO in the assay was 1%. The assays were carried out at 25° C. in the PBS buffer (pH 7.4) with 0.05% Tween-20 and 0.1% BSA. Recombinant human PD-L1 protein (19-238) with a His-tag at the C-terminus was purchased from AcroBiosystems (PD1-H5229). Recombinant human PD-1 protein (25-167) with Fc tag at the C-terminus was also purchased from AcroBiosystems (PD1-H5257). PD-L1 and PD-1 proteins were diluted in the assay buffer and 10 μL was added to the plate well. Plates were centrifuged and proteins were preincubated with inhibitors for 40 minutes. The incubation was followed by the addition of 10 μL of HTRF detection buffer supplemented with Europium cryptate-labeled anti-human IgG (PerkinElmer-AD0212) specific for Fc and anti-His antibody conjugated to SureLight®-Allophycocyanin (APC, PerkinElmer-AD0059H). After centrifugation, the plate was incubated at 25° C. for 60 min. before reading on a PHERAstar FS plate reader (665 nm/620 nm ratio). Final concentrations in the assay were—3 nM PD1, 10 nM PD-L1, 1 nM europium anti-human IgG and 20 nM anti-His-Allophycocyanin. IC50 determination was performed by fitting the curve of percent control activity versus the log of the inhibitor concentration using the GraphPad Prism 5.0 software.

[2] = tested on: U2OS/PD-L1 cells and Jurkat-PD-1-SHP cells; experiment: Src homology region 2 domain-containing phosphatase (SHP) assay; format: cell-based; details: PathHunter chemiluminescence, 2 hours
Protocol: U2OS/PD-L1 cells (DiscoveRx Corporation) were maintained in McCoy's 5A medium with addition of 10% FBS, 0.25 μg/mL Puromycin. After removing the culture media, the cell medium was replaced with assay medium (RPMI1640 medium with 1% FBS). The U2OS/PD-L1 cells were then added in 384-well black clear bottom assay plate (CELLCOAT® Tissue Culture Plates, Greiner Bio-One) at 5000 cells per well in 20 μL assay medium. Test compounds were prepared by serial dilution in DMSO and 125 nL compound were first transferred to the 384 REMP plate well (Thermofisher) by ECHO liquid handler (Labcyte) followed with addition of 27.5 μL assay medium. 5 µL/well compounds in the assay medium were transferred to the cell plate with 0.05% DMSO in the final assay at 0.25 μM. Jurkat-PD-1-SHP cells (DiscoveRx Corporation) were cultured in RPMI1640 medium supplemented with 10% FBS, 250 μg/mL Hygromycin B, 500 μg/mL G418. After the replacement of culture media with assay medium, 5,000 Jurkat-PD-1-SHP cells in 20 μL were dispensed into each well. The assay plate was incubated at 37° C., 5% CO2 for 2 hours before 2.5 μL PathHunter reagent 1 (DiscoveRx Corporation) were added to each well. The assay plate was shaken for 1 min at 350 rpm in the dark followed with addition of 10 μL PathHunter reagent 2 (DiscoveRx Corporation). Chemiluminescent signal was recorded with TopCount reader (Perkin Elmer) after incubation at room temperature for 1 hour. Wells with DMSO were served as the positive controls and wells containing no cells were used as negative controls. IC50 determination was performed by fitting the curve of percentage of control activity versus the log of the compound concentration using the GraphPad Prism 6.0 software.

[3] = tested on: PD-L1 aAPC/CHO-K1 cells and Jurkat-PD-1-NFAT effector cells; experiment: Nuclear factor of activated T-cells (NFAT) assay; format: cell-based; details: luminescence, 24 hours
Protocol: PD-L1 aAPC/CHO-Klcells (Promega) were maintained in F-12 medium with addition of 10% FBS, 200 μg/mL Hygromycin B, 250 μg/mL Geneticin (G418). Jurkat-PD-1-NFAT effector cells (Promega) were cultured in RPMI 1640 medium supplemented with 10% FBS, 100 μg/mL Hygromycin B, 500 μg/mL G418. The culture media of PD-L1 aAPC/CHO-K1 cells were first replaced with assay medium (RPMI1640 medium with 1% FBS). The PD-L1 aAPC/CHO-Klcells were then added in a white 384-well white clear bottom assay plate (CELLCOAT® Tissue Culture Plates, Greiner Bio-One) at 8000 per well in 10 μL assay medium. Test compounds were prepared by serial dilution in DMSO and 0.8 μL test compounds in DMSO were first transferred to the 384 REMP plate well (Thermofisher) by PlateMate Plus (Thermofisher) followed with addition of 50 μL plating medium. 5 μL compounds in the assay medium were transferred to the cells with 0.4% DMSO in the final assay at 2 μM. After removing the culture media, 10,000 Jurkat-PD-1-NFAT effector cells in 5 μL assay medium was dispensed into each well. The assay plate was incubated at 37° C., 5% CO2 for 24 hours. After the assay plate was equilibrated to room temp for 15 minutes, 20 μL/well of Bio-Glo™ reagent (Promega) were added. After 8 minutes incubation at room temperature, luminescence was read at with Pherastar microplate reader (BMG Labtech). The fold of induction (FOI) was calculated based on the ratio of luminescence normalized to the DMSO wells within each assay plate. The maximum percentage of induction was reported based on the ratio between the highest FOI of each compound and the maximum FOI of control compound within each assay plate. Wells with DMSO were served as the negative controls and wells containing control compound with the highest FOI were used as positive controls. EC50 determination was performed by fitting the curve of percent control activity versus the log of the compound concentration using the GraphPad Prism 6.0 software.

[4] = target: PD-L1 (Homo sapiens (Human), UniProt Q9NZQ7); experiment: PD-L1 whole blood internalization assay; format: cell-based; details: PD-L1 internalization in human whole blood, CD14+ cells, interferon γ, 24 hour
Chain of PD-L1 (Q9NZQ7 19-290): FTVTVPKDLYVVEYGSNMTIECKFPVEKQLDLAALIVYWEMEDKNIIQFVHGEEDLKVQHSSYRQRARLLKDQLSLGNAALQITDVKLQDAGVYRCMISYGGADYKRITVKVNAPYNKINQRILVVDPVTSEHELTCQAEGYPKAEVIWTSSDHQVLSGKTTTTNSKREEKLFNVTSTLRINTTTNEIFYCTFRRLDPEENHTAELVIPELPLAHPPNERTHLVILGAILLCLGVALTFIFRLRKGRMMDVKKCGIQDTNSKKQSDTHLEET
Protocol: To determine PD-L1 internalization in human whole blood, normal human blood (Biological Specialty Corp, Colmar. Pa.) was incubated in the presence or absence of a concentration range of test compounds and 1 ng/mL human interferon γ (R&D Systems Inc. Minn. […] Blood was then stained with PD-L1 (MIH1, eBioscience; or BD Biosciences San Jose, Calif.), CD14 (Life Technologies, Carlsbad, Calif.) for 30 minutes in the dark at room temperature. Whole Blood/red cells were lysed/fixed (lysis buffer BD Biosciences) for 5 minutes at 37° C. in the dark and then centrifuged at 1600 RPM for 5 minutes. Cells were resuspended in Stain Buffer (BD Bioscience, San Jose, Calif.) and transferred into 96 well round bottom plates (Corning). Cells were gated on CD14+(BD Biosciences) and PD-L1 expression determined by mean fluorescence intensity (MFI) (BD LSRFortessa™ X-20). IC50 determination was performed by fitting the curve of compound percent inhibition versus the log of the compound concentration using the GraphPad Prism 7.0 software.

[5] = In vivo pharmacokinetics in rats; design: species or system Sprague Dawley rats; details: rat, cassette dosing; for Vd: read-out: Vss; for Cmax / AUC(0-inf) / F: 3.0 mg/kg PO
Protocol: For in vivo pharmacokinetic experiments, test compounds were administered to male Sprague Dawley rats or male and female Cynomolgus monkeys intravenously or via oral gavage. For intravenous (IV) dosing, test compounds were dosed at 0.5 to 1 mg/kg using a formulation of 10% dimethylacetamide (DMAC) in acidified saline via IV bolus for rat and 5 min or 10 min IV infusion for monkey. For oral (PO) dosing, test compounds were dosed at 1.0 to 3.0 mg/kg using 5% DMAC in 0.5% methylcellulose in citrate buffer (pH 3.5). Blood samples were collected at predose and various time points up to 24 hours postdose. All blood samples were collected using EDTA as the anticoagulant and centrifuged to obtain plasma samples. The plasma concentrations of test compounds were determined by LC-MS methods. The measured plasma concentrations were used to calculate PK parameters by standard noncompartmental methods using Phoenix® WinNonlin software program (version 7.0, Pharsight Corporation).
In rats and monkeys, cassette dosing of test compounds were conducted to obtain preliminary PK parameters.

[6] = male, Sprague-Dawley, plasma, 1.0 mg/kg IV
[7] = male, Sprague-Dawley, plasma, read-out: AUC0-inf

Chain of PD-1/PD-L1 (Q9NZQ7 19-238): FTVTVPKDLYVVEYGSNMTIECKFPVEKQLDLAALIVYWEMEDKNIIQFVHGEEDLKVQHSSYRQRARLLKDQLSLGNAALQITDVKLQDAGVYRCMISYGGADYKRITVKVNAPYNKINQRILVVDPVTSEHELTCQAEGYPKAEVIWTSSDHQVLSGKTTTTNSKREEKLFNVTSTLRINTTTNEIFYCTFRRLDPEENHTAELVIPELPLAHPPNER

Row | IC50 [1] | IC50 ([2]; Homo sapiens, U2OS) | IC50 [4] | clearance [5, 6] | half-life [5, 6] | Vd [5, 6] | Cmax ([5]; male, Sprague-Dawley, plasma) | AUC(0-inf) [5, 7] | F [5] | IC50 [2] | Cl ([5]; 1.0 mg/kg IV) | Vss ([5]; 1.0 mg/kg IV) | t1/2 ([5]; 1.0 mg/kg IV) | AUC(0-inf) [5] | Cmax [5] | SMILES | EC50 ([3]; Cricetulus griseus, CHO-K1) | EC50 [3]
1 | 8.3 nM | 6.9 nM | 97 nM | 16.5 mL/min/kg | 3.47 h | 2.45 L/kg | 234 nM | 1.2 µM·h | 28% | – | – | – | – | – | – | CN1CCc2c(nc(C(=O)Nc3cccc(-c4cccc(NC(=O)c5nc6c(n5C)CCN(CC57CCC(C(=O)O)(CC5)C7)C6)c4Cl)c3Cl)n2C)C1 [Example 84] | 47 nM | –
2 | 2.4 nM | 4.9 nM | 149 nM | 19 mL/min/kg | 1.9 h | 1.96 L/kg | 398 nM | 1.5 µM·h | 39% | – | – | – | – | – | – | Cc1c(NC(=O)c2nc3c(n2C)CCN(CC24CCC(C(=O)O)(CC2)C4)C3)cccc1-c1cccc(NC(=O)c2nc3c(n2C)CCN(C)C3)c1Cl [Example 102] | 76 nM | –
3 | 3.4 nM | 4.9 nM | 178 nM | – | – | – | – | – | – | – | – | – | – | – | – | Cc1c(NC(=O)c2nc3c(n2C)CCN(C)C3)cccc1-c1cccc(NC(=O)c2nc3c(n2C)CCN(CC24CCC(C(=O)O)(CC2)C4)C3)c1Cl [Example 119, reference compound] | 82 nM | –
4 | 2.9 nM | 17 nM | 732 nM | – | – | – | – | – | – | – | – | – | – | – | – | CCN1CCc2c(nc(C(=O)Nc3cccc(-c4cccc(NC(=O)c5nc6c(n5C)CCN(CC57CCC(C(=O)O)(CC5)C7)C6)c4Cl)c3Cl)n2C)C1 [Example 176, reference compound] | 122 nM | –
5 | 1.5 nM | 5.7 nM | 185 nM | – | – | – | – | – | – | – | – | – | – | – | – | CC(C)N1CCc2c(nc(C(=O)Nc3cccc(-c4cccc(NC(=O)c5nc6c(n5C)CCN(CC57CCC(C(=O)O)(CC5)C7)C6)c4Cl)c3Cl)n2C)C1 [Example 177, reference compound] | 31 nM | –
6 | 1.9 nM | 13 nM | 587 nM | – | – | – | – | – | – | – | – | – | – | – | – | Cn1c(C(=O)Nc2cccc(-c3cccc(NC(=O)c4nc5c(n4C)CCN(C4CCC4)C5)c3Cl)c2Cl)nc2c1CCN(CC13CCC(C(=O)O)(CC1)C3)C2 [Example 178, reference compound] | 82 nM | –
7 | 1.5 nM | – | 166 nM | – | – | – | – | – | 38% | 4.4 nM | 26.2 mL/min/kg | 2.48 L/kg | 2.21 h | 0.956 µM·h | 231 nM | Cn1c(C(=O)Nc2cccc(-c3cccc(NC(=O)c4nc5c(n4C)CCN(CC46CCC(C(=O)O)(CC4)C6)C5)c3Cl)c2Cl)nc2c1CCN(CCO)C2 [Example 180] | – | 30 nM
8 | 1.6 nM | 6.1 nM | 161 nM | – | – | – | – | – | – | – | – | – | – | – | – | C[C@H](O)CN1CCc2c(nc(C(=O)Nc3cccc(-c4cccc(NC(=O)c5nc6c(n5C)CCN(CC57CCC(C(=O)O)(CC5)C7)C6)c4Cl)c3Cl)n2C)C1 [Example 181, reference compound] | 41 nM | –
9 | 1.7 nM | 4.4 nM | 92 nM | – | – | – | – | – | – | – | – | – | – | – | – | C[C@@H](O)CN1CCc2c(nc(C(=O)Nc3cccc(-c4cccc(NC(=O)c5nc6c(n5C)CCN(CC57CCC(C(=O)O)(CC5)C7)C6)c4Cl)c3Cl)n2C)C1 [Example 182, reference compound] | 30 nM | –
10 | 1.8 nM | 5.6 nM | 49 nM | – | – | – | – | – | – | – | – | – | – | – | – | Cn1c(C(=O)Nc2cccc(-c3cccc(NC(=O)c4nc5c(n4C)CCN(C4CCC(O)CC4)C5)c3Cl)c2Cl)nc2c1CCN(CC13CCC(C(=O)O)(CC1)C3)C2 (stereo not shown) [Example 183, reference compound] | 18 nM | –
11 | 2.3 nM | 4.9 nM | 62 nM | 63.7 mL/min/kg | – | 4.45 L/kg | 57 nM | 0.398 µM·h | 8% | – | – | – | – | – | – | Cc1c(-c2nc3cc(CN4CC[C@@H](O)C4)cc(C#N)c3o2)cccc1-c1cccc(NC(=O)c2nc3c(n2C)CCN(CCC2CCC(C(=O)O)CC2)C3)c1Cl (stereo partly shown) [Example 265] | 15 nM | –
12 | 2.3 nM | 7.8 nM | 121 nM | – | 3.28 h | 2.22 L/kg | 108 nM | 0.687 µM·h | 12% | – | – | – | – | – | – | Cc1c(-c2nc3cc(CN4CC[C@@H](O)C4)cc(C#N)c3o2)cccc1-c1cccc(NC(=O)c2nc3c(n2C)CCN(CC24CCC(C(=O)O)(CC2)C4)C3)c1Cl [Example 267] | 39 nM | –
